# In publication PMC12516812 (RSC Advances, 2025):
# System: MCF-7, U87, PANC-1 and A549
# Assay: MTT cytotoxicity assay, average over all tested cancer cell lines
# Assay type: cell-based
# Settings: Homo sapiens, 72 h, read-out: average IC50 against all tested cell lines
compound,measurement,value
"CC1=CC(=O)C(C(C)C)=CC1=O [TQ, Thymoquinone]",IC50,~32 µM
